Results taken from patent publication US20080139513A1, “TRANSDERMAL DELIVER OF ACTIVE AGENTS” (Novavax, Inc., priority 2006, published 2008).
≈ marks a conversion by molar mass, not a printed value. Where a name gives a salt, the structure may show the parent alone. Read-outs that look alike come from different tables or passages of the source.

Assays:
[1] = cited from earlier work
[2] = system: women; conditions: women taking the drug, MORE trial; cited from earlier work
[3] = system: postmenopausal women; conditions: cited from earlier work
[4] = system: mice; conditions: cited from earlier work
[5] = cited from earlier work; remark: listed apart in the source
[6] = cited from earlier work; remark: listed apart in the source
[7] = cited from earlier work; remark: listed apart in the source
[8] = in vitro; conditions: human, topical or ocular
[9] = system: uterus; conditions: clinical studies; cited from earlier work
[10] = oral, cited from earlier work
[11] = system: rats; conditions: female rats given 279 mg/kg, 2 years; cited from earlier work
[12] = system: bacterial mutagenesis; conditions: with and without metabolic activation; cited from earlier work
[13] = system: mammalian cell mutation; conditions: cited from earlier work
[14] = system: Chinese hamster ovary cells; conditions: cited from earlier work
[15] = system: Chinese hamsters; conditions: cited from earlier work
[16] = system: rat hepatocytes; conditions: cited from earlier work
[17] = system: mice; conditions: cited from earlier work; remark: listed apart in the source
[18] = system: women; conditions: cited from earlier work

For `O=C(c1ccc(OCCN2CCCCC2)cc1)c1c(-c2ccc(O)cc2)sc2cc(O)ccc12` [Raloxifene], the plasma elimination half-life ([1]; after oral dosing) is given as 27.7 h, the clearance rate ([1]; following intravenous administration) is given as “approximating hepatic blood flow” and the “incidence of breast cancer compared with controls” value [2] is given as “lower incidence”. The “fewer uterine cancers than those assigned to tamoxifen” value ([3]; STAR trial) was 36%, the “reduction of risk for invasive breast cancer” value ([3]; postmenopausal women, STAR trial interim analysis) was “approximately 50%” and the “incidence of ovarian tumors” value ([4]; female mice given 9 to 242 mg/kg, 21 months) was “increased incidence”. The “incidence of prostatic leiomyoblastoma” value ([4]; male mice given 210 mg/kg) was “increased incidence”, the “incidence of testicular interstitial cell tumors, prostatic adenomas, and adenocarcinomas” value ([4]; male mice given 41 or 210 mg/kg) was “increased incidence” and the water solubility ([5]; H2O) was 0.25 µg/mL (≈ 0.528 µM). For the same compound, the “increased incidence of VTE” value ([6]; oral) was 2-4 times, the plasma antithrombin levels ([6]; raloxifene use) was “significant reduction” and the tPA levels ([6]; raloxifene use) was “significant reduction”. For the same compound, the “log P” value [7] was 5.749, the bioavailability at 3 wt % [8] was ~1% and the uterotrophic activity [9] was “does not have uterotrophic activity”. For the same compound, the absolute bioavailability [10] was 2%, the absolute bioavailability ([10]; listed as raloxifene) was “approximately 2%” and the “incidence in ovarian tumors of granulosa/theca cell origin” value [11] was “increased incidence”.

For `O=C(c1ccc(OCCN2CCCCC2)cc1)c1c(-c2ccc(O)cc2)sc2cc(O)ccc12` [Raloxifene.HCl, raloxifene hydrochloride], the “increase in AUC with increasing doses” value ([1]; doses ranging from 30 to 150 mg) is listed as “slightly less than a proportional increase”, the “genotoxicity, Ames test” value [12] is listed as “not genotoxic” and the “genotoxicity, mouse lymphoma assay” value [13] is listed as “not genotoxic”. For the same compound, the “genotoxicity, chromosomal aberration assay” value [14] was “not genotoxic”, the “genotoxicity, in vivo sister chromatid exchange assay” value [15] was “not genotoxic” and the “genotoxicity, unscheduled DNA synthesis assay” value [16] was “not genotoxic”. The “genotoxicity, in vivo micronucleus test” value [17] was “not genotoxic”.

In the case of `O=C1CC[C@@]2(O)[C@H]3Cc4ccc(O)c5c4[C@@]2(CCN3CC2CC2)[C@H]1O5` [Naltrexone], the “solubility in water” value ([5]; water) is given as “water soluble”.

In the case of estrogen, the “VTE rates compared to placebo group” value ([18]; estrogen transdermally) is listed as “no significant difference” and the “risk of VTE compared to a placebo group” value ([18]; oral estrogen, 95 percent CI 1.8-6.8) is listed as 3.5 fold.
